Experimental data as given in ChEMBL document CHEMBL3045239, “Synthesis and antimicrobial evaluation of novel benzo[b]thiophenes comprising -lactam nucleus” (2012).

How the values were obtained:
Format in all cases: functional
[1] = test system: Escherichia coli; test: Antimicrobial activity against Escherichia coli at 1 mg/ml after 24 hr by agar well diffusion method; settings: read-out: DIZ
[2] = test system: Micrococcus luteus; test: Antimicrobial activity against Micrococcus luteus at 1 mg/ml after 24 hr by agar well diffusion method; settings: read-out: DIZ
[3] = test system: Bacillus subtilis; test: Antimicrobial activity against Bacillus subtilis at 1 mg/ml after 24 hr by agar well diffusion method; settings: read-out: DIZ
[4] = test system: Staphylococcus aureus; test: Antimicrobial activity against Staphylococcus aureus at 1 mg/ml after 24 hr by agar well diffusion method; settings: read-out: DIZ
[5] = test system: Pseudomonas aeruginosa; test: Antimicrobial activity against Pseudomonas aeruginosa at 1 mg/ml after 24 hr by agar well diffusion method; settings: read-out: DIZ
[6] = test system: Fusarium solani; test: Antimicrobial activity against Fusarium solani at 200 ug/ml after 7 days by agar plate method; settings: 168 h
[7] = test system: Candida albicans; test: Antimicrobial activity against Candida albicans at 200 ug/ml after 7 days by agar plate method; settings: 168 h
[8] = test system: Trichophyton longifusum; test: Antimicrobial activity against Trichophyton longifusum at 200 ug/ml after 7 days by agar plate method; settings: 168 h
[9] = test system: Microsporum canis; test: Antimicrobial activity against Arthroderma otae at 200 ug/ml after 7 days by agar plate method; settings: 168 h

Structure (SMILES) | zone of inhibition at 1000 µg/mL [1] [mm] | zone of inhibition at 1000 µg/mL [2] [mm] | zone of inhibition at 1000 µg/mL [3] [mm] | zone of inhibition at 1000 µg/mL [4] [mm] | zone of inhibition at 1000 µg/mL [5] [mm] | inhibition at 200 µg/mL [6] [%] | inhibition at 200 µg/mL [7] [%] | inhibition at 200 µg/mL [8] [%] | inhibition at 200 µg/mL [9] [%]
Cc1nn(-c2ccccc2)c(Cl)c1/C=C/C1=Cc2c(sc(N3C(=O)[C@@H](Oc4ccc(Cl)cc4Cl)[C@H]3c3ccc(N(C)C)cc3)c2C#N)C(C)(C)C1 (relative stereo) | 14.6 | < 10 | < 10 | < 10 | < 10 | – | – | – | –
COc1ccc([C@@H]2[C@H](Oc3ccc(Cl)cc3Cl)C(=O)N2c2sc3c(c2C#N)C=C(/C=C/c2c(C)nn(-c4ccccc4)c2Cl)CC3(C)C)cc1 (relative stereo) | 15.6 | < 10 | 12.5 | 11.3 | 11.9 | 25 | 30 | – | –
COc1ccc([C@@H]2[C@H](Oc3ccc(Cl)cc3Cl)C(=O)N2c2sc3c(c2C#N)C=C(/C=C/c2c(C)nn(-c4ccccc4)c2Cl)CC3(C)C)cc1O (relative stereo) | 13.7 | < 10 | < 10 | < 10 | < 10 | – | – | – | –
COc1cc([C@@H]2[C@H](Oc3ccc(Cl)cc3Cl)C(=O)N2c2sc3c(c2C#N)C=C(/C=C/c2c(C)nn(-c4ccccc4)c2Cl)CC3(C)C)cc(OC)c1OC | 12.9 | < 10 | 11.6 | 10.6 | 11.7 | – | 50 | – | –
Cc1nn(-c2ccccc2)c(Cl)c1/C=C/C1=Cc2c(sc(N3C(=O)[C@@H](Oc4ccc(Cl)cc4Cl)[C@H]3c3ccccc3O)c2C#N)C(C)(C)C1 (relative stereo) | 17.6 | < 10 | 18.9 | 12.3 | 11.6 | – | 91 | 89 | –
Cc1nn(-c2ccccc2)c(Cl)c1/C=C/C1=Cc2c(sc(N3C(=O)[C@@H](Oc4ccc(Cl)cc4Cl)[C@H]3c3ccc(Cl)c(Cl)c3)c2C#N)C(C)(C)C1 (relative stereo) | 12 | < 10 | 11.2 | < 10 | 10.8 | – | – | – | –
C=CC1=C(C(=O)O)N2C(=O)[C@@H](NC(=O)/C(=N\OCC(=O)O)c3csc(N)n3)[C@H]2SC1 [CEFIXIME] | 30 | 34.1 | 28.7 | 36.1 | 17.8 | – | – | – | –
Cc1nn(-c2ccccc2)c(Cl)c1/C=C/C1=Cc2c(sc(N3C(=O)[C@@H](Oc4ccc(Cl)cc4Cl)[C@H]3c3ccc([N+](=O)[O-])cc3)c2C#N)C(C)(C)C1 (relative stereo) | 14 | < 10 | 11.2 | < 10 | 12.1 | – | – | – | –
Cc1nn(-c2ccccc2)c(Cl)c1/C=C/C1=Cc2c(sc(N3C(=O)[C@@H](Oc4ccc(Cl)cc4Cl)[C@H]3c3ccccc3Cl)c2C#N)C(C)(C)C1 (relative stereo) | 17.8 | 13.1 | 18.7 | 11.3 | 10.6 | 40 | 94 | 92 | –
O=C(N[C@H](CO)[C@H](O)c1ccc([N+](=O)[O-])cc1)C(Cl)Cl [CHLORAMPHENICOL] | 17 | 17.2 | 18.8 | 16.4 | 19.6 | – | – | – | –
Cc1nn(-c2ccccc2)c(Cl)c1/C=C/C1=Cc2c(sc(N3C(=O)[C@@H](Oc4ccc(Cl)cc4Cl)[C@H]3c3ccccc3)c2C#N)C(C)(C)C1 (relative stereo) | 14.2 | < 10 | 11.7 | < 10 | 11.7 | – | – | 40 | 50
Cc1nn(-c2ccccc2)c(Cl)c1/C=C/C1=Cc2c(sc(N3C(=O)[C@@H](Oc4ccc(Cl)cc4Cl)[C@H]3c3ccc(Cl)cc3)c2C#N)C(C)(C)C1 (relative stereo) | 13.9 | < 10 | 12.4 | 10.6 | 11.2 | – | – | 35 | –
Clc1ccc(COC(Cn2ccnc2)c2ccc(Cl)cc2Cl)c(Cl)c1 (stereo not given) [MICONAZOLE] | – | – | – | – | – | 90 | 90 | 100 | 90
